The values below come from US8410302B2, “Methoxyimino compounds and fungicide composition comprising same” (Kyung Nong Corporation, priority 2007, dated 2013).

Experiment [1] concerns Pyricularia oryzae Carvara KA301. Description: whole plant or invertebrate. The format is in vivo. The following applies: Pyricularia oryzae, read-out: RCB control value (C.V.).
In a further experiment the test system is Phytophthora infestans. Nature of the experiment: whole plant or invertebrate. It is filed as in vivo. The following applies: Phytophthora infestans, in Solanum lycopersicum, read-out: TLB control value (C.V.).
A further experiment concerns Rhizoctonia solani AG-1. Nature of the experiment: Fungicidal activity against rice sheath blight (RSB) disease, control value. The following applies: Rhizoctonia solani, AG1, in Oryza sativa, read-out: RSB control value (C.V.).
Another experiment has as its system Erysiphae graminis. Description: Fungicidal activity against barley powdery mildew (BPM) disease, control value. To be noted: 168 h, read-out: BPM control value (C.V.). It is filed as in vivo.
The subject of a further experiment is Botrytis cinerae. Description: Fungicidal activity against cucumber gray mold rot (CGM) disease, control value. The format is in vivo. To be noted: Botrytis, read-out: CGM control value (C.V.).
For a further experiment, the system named is Puccinia recondita. Description: Fungicidal activity against wheat leaf rust (WLR) disease, control value. It is filed as in vivo. The following applies: Puccinia recondita, read-out: WLR control value (C.V.).

As for `CCOc1cc(C=C(Cl)Cl)ccc1OCc1ccccc1/C(=N\OC)C(=O)OC` [Example 59, methyl-(E)-2-(2-((4-(2,2-dichlorovinyl)-2-ethoxyphenoxy)methyl)phenyl)-2-methoxyiminoacetate], the pest or weed control at 2 ppm was 97% in experiment [1]; 98% in the experiment with Phytophthora infestans; 98% with Rhizoctonia solani AG-1; 98% in the experiment on Erysiphae graminis; 90% in the experiment with Puccinia recondita. In addition, the pest or weed control at 10 ppm (in experiment [1]; with Phytophthora infestans; in the experiment with Rhizoctonia solani AG-1; in the experiment on Erysiphae graminis; in the experiment on Puccinia recondita) was 100% in each case. Further, the pest or weed control at 50 ppm (in experiment [1]; with Phytophthora infestans; in the experiment with Rhizoctonia solani AG-1; with Erysiphae graminis; with Puccinia recondita) was 100% each time. In addition, the pest or weed control at 100 ppm worked out at 100% in experiment [1]; 100% with Phytophthora infestans; 100% in the experiment on Rhizoctonia solani AG-1; 100% in the experiment with Erysiphae graminis; 65% in the experiment on Botrytis cinerae; 100% in the experiment with Puccinia recondita.
As for `CCOc1cc(C=C(Cl)Cl)ccc1OCc1ccccc1/C(=N\OC)C(=O)NC` [Example 60, (E)-2-(2-((4-(2,2-dichlorovinyl)-2-ethoxyphenoxy)methyl)phenyl)-2-methoxyimino-N-methylacetamide], the pest or weed control at 2 ppm in experiment [1] worked out at 80%; in the experiment on Phytophthora infestans, 70%; with Rhizoctonia solani AG-1 it was 98%; with Erysiphae graminis it was 95%; in the experiment with Puccinia recondita, 95%. The pest or weed control at 10 ppm was 96% in experiment [1]; 92% with Phytophthora infestans; 100% in the experiment with Rhizoctonia solani AG-1; 98% with Erysiphae graminis; 100% in the experiment with Puccinia recondita. Moreover, the pest or weed control at 50 ppm in experiment [1] stood at 100%; in the experiment with Phytophthora infestans, 95%; in the experiment with Rhizoctonia solani AG-1 it was 100%; with Erysiphae graminis, 100%; in the experiment on Puccinia recondita, 100%. In addition, the pest or weed control at 100 ppm in experiment [1] is 100%; in the experiment on Phytophthora infestans, 100%; in the experiment with Rhizoctonia solani AG-1, 100%; in the experiment on Erysiphae graminis it was 100%; with Botrytis cinerae, 45%; with Puccinia recondita, 100%.
Turning to `CO/N=C(/C(=O)OC)c1ccccc1COc1cc(Br)ccc1C=C(Cl)Cl` [Example 61, methyl-(E)-2-(2-((5-bromo-2-(2,2-dichlorovinyl)phenoxy)methyl)phenyl)-2-methoxyiminoacetate], the pest or weed control at 2 ppm in experiment [1] was found to be 99%; in the experiment with Phytophthora infestans, 99%; in the experiment on Rhizoctonia solani AG-1, 95%; in the experiment on Erysiphae graminis it was 100%; in the experiment with Puccinia recondita, 100%. In addition, the pest or weed control at 10 ppm (in experiment [1]; in the experiment with Phytophthora infestans; in the experiment on Rhizoctonia solani AG-1; in the experiment on Erysiphae graminis; with Puccinia recondita) was 100% throughout. Also, the pest or weed control at 50 ppm turned out to be 100% in experiment [1]; 100% in the experiment on Phytophthora infestans; 100% with Rhizoctonia solani AG-1; 100% in the experiment with Erysiphae graminis; 40% with Botrytis cinerae; 100% in the experiment on Puccinia recondita. Besides, the pest or weed control at 100 ppm is 100% in experiment [1]; 100% with Phytophthora infestans; 100% in the experiment on Rhizoctonia solani AG-1; 100% in the experiment with Erysiphae graminis; 85% with Botrytis cinerae; 100% in the experiment with Puccinia recondita.
Consider `CNC(=O)/C(=N/OC)c1ccccc1COc1cc(Br)ccc1C=C(Cl)Cl` [Example 62, (E)-2-(2-((5-bromo-2-(2,2-dichlorovinyl)phenoxy)methyl)phenyl)-2-methoxyimino-N-methylacetamide], for which the pest or weed control at 2 ppm in experiment [1] amounted to 90%; in the experiment on Phytophthora infestans, 99%; with Rhizoctonia solani AG-1, 93%; in the experiment on Erysiphae graminis, 99%; with Puccinia recondita, 100%. Moreover, the pest or weed control at 10 ppm in experiment [1] was determined as 99%; with Phytophthora infestans it was 100%; in the experiment on Rhizoctonia solani AG-1, 100%; in the experiment with Erysiphae graminis, 100%; with Puccinia recondita, 100%. Besides, the pest or weed control at 50 ppm in experiment [1] came out at 100%; with Phytophthora infestans it was 100%; in the experiment on Rhizoctonia solani AG-1, 100%; with Erysiphae graminis, 100%; with Botrytis cinerae it was 30%; in the experiment on Puccinia recondita, 100%. In addition, the pest or weed control at 100 ppm in experiment [1] is 100%; with Phytophthora infestans, 100%; with Rhizoctonia solani AG-1 it was 100%; in the experiment with Erysiphae graminis, 100%; in the experiment with Botrytis cinerae it was 85%; with Puccinia recondita, 100%.
As for `CO/N=C(/C(=O)OC)c1ccccc1COc1ccc(C=C(Br)Br)cc1Cl` [Example 63, methyl-(E)-2-(2-((4-(2,2-dibromovinyl)-2-chlorophenoxy)methyl)phenyl)-2-methoxyiminoacetate], the pest or weed control at 2 ppm in experiment [1] stood at 100%; in the experiment with Phytophthora infestans it was 99%; in the experiment on Rhizoctonia solani AG-1 it was 90%; in the experiment with Erysiphae graminis it was 100%; in the experiment on Puccinia recondita, 100%. The pest or weed control at 10 ppm (in experiment [1]; in the experiment with Phytophthora infestans; with Rhizoctonia solani AG-1; in the experiment on Erysiphae graminis; in the experiment on Puccinia recondita) was 100% throughout. Moreover, the pest or weed control at 50 ppm in experiment [1] was 100%; in the experiment with Phytophthora infestans, 100%; with Rhizoctonia solani AG-1 it was 100%; with Erysiphae graminis it was 100%; with Botrytis cinerae, 20%; in the experiment with Puccinia recondita, 100%. In addition, the pest or weed control at 100 ppm in experiment [1] came to 100%; with Phytophthora infestans, 100%; in the experiment on Rhizoctonia solani AG-1, 100%; in the experiment with Erysiphae graminis it was 100%; in the experiment on Botrytis cinerae, 75%; with Puccinia recondita, 100%.
